Data published in patent US7781423B2, “Compounds to promote regeneration of bone marrow” (priority 2007, dated 2010).

Columns and labels:
[1] = system: NIH 3T3, A431, MCF-7, MEL-28, HT-29, A549, T47D, CaOV-3, ZR-75-1, HTB-157, MEL-24, Hep G2, CaCO-2, MB-231 cells; assay: MTT survival/proliferation experiments on the panel of normal and cancer cells; type: cell-based, human, mouse; settings: serum-free (survival) or 2% serum (proliferation); 72 hours; lower and higher (50 μM) concentration
Protocol: The NIH 3T3 (normal) mouse fibroblast, A431 human epidermoid adenocarcinoma, and MCF-7 human breast cancer cells were cultured in DMEM medium containing 10% FBS. The MEL-28 human melanoma cells were cultured in MEM medium containing 10% FBS. The HT-29 human colon adenocarcinoma cells were cultured in McCoy's 5a medium containing 10% FBS. The A549 human lung carcinoma cells were maintained in Ham's F12K medium containing 10% FBS. T47D cells were cultured in 12-well plates in RPMI 1640 medium supplemented with 0.2 IU bovine insulin and 10% FBS. CaOV-3 human ovarian cancer cells were cultured in DMEM containing 10% FBS. ZR-75-1 human estrogen receptor-positive breast cancer cells were maintained in RPMI 1640 medium supplemented with 10% FBS. HTB-157 human fetal fibroblasts, MEL-24 human malignant melanoma cells, Hep G2 human hepatoblastoma cells, and CaCO-2 human colon adenocarcinoma cells were maintained in Eagles's MEM containing 10% FBS. MB-231 human estrogen receptor-negative breast cancer cells were maintained in Leibovitz's L-15 medium supplemented with 10% FBS.
In the actual experiments, cells were seeded into 96-well plates and cultivated up to either ˜70-90% confluency (survival experiments) or 20-25% confluency (proliferation experiments). Then the medium was changed for serum-free medium (survival experiment) or 2% serum-containing medium (proliferation experiment). […]

[2] = system: granulocyte-macrophage colony-forming units (CFU-GM); assay: Recovery of bone marrow function after sublethal whole body irradiation (nucleated BM cells, CFU-GM assay); type: in vivo, C57B1 mice; settings: for CFU-GM per femur / CFU-GM/10^5 nucleated BM cells: CCompound1 4.5 mg per kg i.p. daily, day -3 to day +3; for CFU-GM/10^5 nucleated BM cells: colonies counted on day 7 of culture
Protocol: This experiment served to determine if CCompound1 was able to promote regeneration of partially ablated bone marrow from endogenous stem cells i.e. promote restoration of the capacity of bone marrow to produce blood cells. The CFU-GM assay was performed because the number of CFU-GM per femur is a good indicator of bone marrow regeneration. Ballestrero, A., Ferrando, F., Garuti, A., Basta, P., Gonella, R., Stura, P., Mela, G. S., Sessarego, M, Gobbi, M. and Patrone, F., “Comparative effects of three cytokine regimens after high-dose cyclophosphamide: Granulocyte colony-stimulating factor, granulocyte-macrophage colony-stimulating factor (GM-CSF), and sequential interleukin-3 and GM-CSF,” J. Clin. Oncol., 17, 1296-1303 (1999).
C57B1 female (10-14 weeks old) mice received sublethal (250 cGy) whole body irradiation from a ^137Cesium source (day 0). Starting three days before irradiation, animals received daily 4.5 mg per kg of CCompound1 via intraperitoneal injection; this treatment also was provided on day 0 and once daily for three days subsequent to irradiation. In another group, mice were injected only with physiological saline. The subsequent procedure has been reported in Vas, V., Fajka-Boja, R., Ion, G. A., Dudics, V., Monostori, E. and Uher, F., “Biphasic effect of recombinant Galectin-1 on the growth and death of early hematopoietic cells,” Stem Cells, 23, 279-287 (2005). Briefly, bone marrow was flushed from the femurs with Iscove's modified Dulbecco's medium (Gibco BRL, Gaithersburg, Md., USA), and after standard erythrocyte lysis, nucleated cells were counted using a hemocytometer. […] To measure the formation of the granulocyte-macrophage colony-forming units (CFU-GM), a semisolid colony-forming cell assay was used. Nucleated bone marrow cells (isolated on the days as indicated above) were plated in 35-mm Petri dishes (Costar, Cambridge, Mass., USA) in Iscove's modified Dulbecco's medium supplemented with 1% methylcellulose, 30% horse serum (Gibco), 10% WEHI-3B conditioned medium as a source of growth factors, 4 mM L-glutamine, 0.25 mM a-thioglycerol (Gibco), 1% deionized bovine serum albumine (Sigma), and antibiotics (Gibco). Cells were cultured at 37° C. in 5% CO2/95% air atmosphere and colonies were counted on day 7 in the same dish. Colonies containing at least 50 cells were counted which is a generally accepted value in the literature. Each value represents the mean±st. dev. of 9 samples (3 parallel dishes from each animal).

[3] = system: MXT mammary tumor; type: in vivo; settings: MXT tumor-bearing, CP-treated mice, by day 22
Protocol: This experiment was designed to determine whether in a tumor model CC compounds could prevent cyclophosphamide-induced loss of body weight resulting from the depression of blood marrow function. Specified pathogen free (SPF) hygienic category colonies of first generation hybrid BDF1 (C57B1 female×DBA/2 male) adult female mice, weighing 23-24 g, were used. The animals were kept in macrolon cages at 22-24° C. (45-55% humidity), with a lighting regimen of 12/12 h light/dark. […] The animals used in these studies were cared for according to the “Guiding Principles for the Care and Use of Animals” based upon the Helsinki declaration.
MXT mammary tumor pieces (containing about 10^6 tumor cells) were implanted subcutaneously to develop the tumors. After six days when the tumor-bearing mice were first treated, the sizes of the tumors were in the 0.26-0.30 cm^3 range. All compounds used were dissolved in 0.9% sodium chloride and applied subcutaneously (CC compounds) or intraperitoneally (CP) in 50 μl volume. Tumor volume was determined by using calipers in three dimensions; this technique is well known to one having ordinary skill in the art. Tumor volume was calculated according to the generally accepted formula: V=a^2×b×π/6, where “a” and “b” mean the shortest and longest diameter, respectively, of the measured tumor.
In the first group, animals received no treatment. In the second group, mice were administered 120-mg/kg of CP on day 6 followed by seven consecutive daily treatments with the same dose. In the third group, each treatment with CP was associated with administration of 4.5-mg/kg of CCompound1. In the fourth group, each treatment with CP was associated with administration of 4.5-mg/kg of CCompound3. In the fifth group, each treatment with CP was associated with administration of 2.0-mg/kg of CCompound26. Each group included 7 mice. All data represent the average of 7 determinations (one determination with each mouse in the group).

[4] = day 3 after 250 cGy irradiation
[5] = day 6 after 250 cGy irradiation
[6] = day 10 after 250 cGy irradiation

Q: Which “enhancement of survival or proliferation” value [1] does the source give for Cc1c(OCC(O)C[N+](C)(C)C)cc2c(=O)c3ccccc3sc2c1C.[Cl-] (stereo not drawn) [CCcompound1, [3-(3,4-Dimethyl-9-oxo-9H-thioxanthen-2-yloxy)-2-hydroxypropyl]trimethyl-ammonium chloride] here?
A: Neither the lower nor the higher concentration of CCompound1 enhanced the survival or proliferation

Q: What about the CFU-GM per femur [2, 4] of the same compound?
A: 508

Q: What about the “CFU-GM/10^5 nucleated BM cells” value [2, 4] of the same compound?
A: 87.8 ± 9.0

Q: What about the CFU-GM per femur [2, 5] of the same compound?
A: 713

Q: And the “CFU-GM/10^5 nucleated BM cells” value [2, 5]?
A: 92.3 ± 7.2

Q: What about the CFU-GM per femur [2, 6] of the same compound?
A: 1,081

Q: And the “CFU-GM/10^5 nucleated BM cells” value [2, 6]?
A: 94.4 ± 8.1

Q: What about the “effect on number of nucleated bone marrow cells and CFU-GM” value ([2]; from the third day on after sublethal irradiation) of the same compound?
A: enhanced the number of nucleated bone marrow cells and CFU-GM

Q: And the “effect on body weight” value [3]?
A: body weight gain
